Results taken from US20230265151A1, “GIP/GLP1 CO-AGONIST COMPOUNDS” (priority 2020, published 2023).
Read-outs that look alike come from different tables or passages of the source. *1 amine or outer side, *2 acyl side, *3 side chain or, on linkers, in order; H or OH if unused. Where a SMILES comes first, the peptide text is derived from it. Side-chain parts run from the residue outwards. [ ]: non-standard residue; d: D form. The star is where a group is joined. αMePhe(2-F) = C[C@](N)(Cc1ccccc1F)C(=O)O; γGlu = O=C(O)[C@H](CCC(=O)[*:2])N[*:1]; C14 diacid = O=C(O)CCCCCCCCCCCCC(=O)*; αMeY = C[C@](N)(Cc1ccc(O)cc1)C(=O)O; αMeF = C[C@](N)(Cc1ccccc1)C(=O)O; 4Pal = N[C@@H](Cc1ccncc1)C(=O)O; αMeL = CC(C)C[C@](C)(N)C(=O)O; Orn = NCCC[C@H](N)C(=O)O; AEEA = NCCOCCOCC(=O)O; Aib = CC(C)(N)C(=O)O

Assays:
Format in all cases: cell-based
hGCGR = biological target: T1, hGCGR (Homo sapiens, UniProt P47871); assay: Functional cAMP formation (HTRF) in HEK-293 clonal cells expressing hGCGR, 0.1% bovine casein, without or with 1.0% human serum albumin; details: geometric mean
T1 construct: expressed in transfected cells
T1 sequence (P47871 26-477): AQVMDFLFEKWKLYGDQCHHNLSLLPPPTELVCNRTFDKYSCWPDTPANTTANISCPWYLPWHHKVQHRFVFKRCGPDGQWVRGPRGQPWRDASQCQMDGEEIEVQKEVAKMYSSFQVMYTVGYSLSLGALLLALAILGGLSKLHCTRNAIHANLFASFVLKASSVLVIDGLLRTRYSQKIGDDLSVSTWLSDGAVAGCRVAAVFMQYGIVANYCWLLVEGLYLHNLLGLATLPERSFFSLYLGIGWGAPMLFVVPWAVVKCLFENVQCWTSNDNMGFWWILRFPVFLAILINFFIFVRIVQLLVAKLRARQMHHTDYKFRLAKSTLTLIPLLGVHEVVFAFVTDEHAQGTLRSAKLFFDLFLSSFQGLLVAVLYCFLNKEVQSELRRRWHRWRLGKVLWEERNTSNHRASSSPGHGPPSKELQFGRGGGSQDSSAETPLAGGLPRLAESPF
How it was run: (§1)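 Cells were stimulated with peptide for 30 min at 37° C, then lysed in buffer carrying cAMP-d2 and anti-cAMP Eu3+-cryptate for a competitive HTRF read after at least 60 min at room temperature. The 665/620 nm ratio was converted to nM cAMP against a standard curve.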

hGIPR = biological target: T2, hGIPR (Homo sapiens, UniProt P48546); assay: Functional cAMP formation (HTRF) in HEK-293 clonal cells expressing hGIPR, 0.1% bovine casein, without or with 1.0% human serum albumin; details: for EC50: geometric mean
T2 construct: expressed in transfected cells
T2 sequence (P48546 22-466): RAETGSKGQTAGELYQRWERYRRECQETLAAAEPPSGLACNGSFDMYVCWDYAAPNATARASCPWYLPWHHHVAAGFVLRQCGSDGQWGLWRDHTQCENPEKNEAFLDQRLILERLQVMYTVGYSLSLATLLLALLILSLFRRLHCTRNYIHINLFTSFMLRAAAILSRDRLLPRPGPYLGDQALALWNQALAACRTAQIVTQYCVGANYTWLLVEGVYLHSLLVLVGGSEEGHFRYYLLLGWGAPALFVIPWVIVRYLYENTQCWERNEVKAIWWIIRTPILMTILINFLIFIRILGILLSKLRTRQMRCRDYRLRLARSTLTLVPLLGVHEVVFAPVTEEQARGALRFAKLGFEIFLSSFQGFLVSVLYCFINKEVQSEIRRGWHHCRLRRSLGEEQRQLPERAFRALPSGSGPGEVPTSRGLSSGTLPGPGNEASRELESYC
How it was run: as §1

hGLP-1R = hGLP-1R (Homo sapiens, UniProt P43220); assay: Functional cAMP formation (HTRF) in HEK-293 clonal cells expressing hGLP-1R, 0.1% bovine casein, without or with 1.0% human serum albumin; set-up: expressed in transfected cells; details: for EC50: geometric mean
Sequence of hGLP-1R (P43220 24-463): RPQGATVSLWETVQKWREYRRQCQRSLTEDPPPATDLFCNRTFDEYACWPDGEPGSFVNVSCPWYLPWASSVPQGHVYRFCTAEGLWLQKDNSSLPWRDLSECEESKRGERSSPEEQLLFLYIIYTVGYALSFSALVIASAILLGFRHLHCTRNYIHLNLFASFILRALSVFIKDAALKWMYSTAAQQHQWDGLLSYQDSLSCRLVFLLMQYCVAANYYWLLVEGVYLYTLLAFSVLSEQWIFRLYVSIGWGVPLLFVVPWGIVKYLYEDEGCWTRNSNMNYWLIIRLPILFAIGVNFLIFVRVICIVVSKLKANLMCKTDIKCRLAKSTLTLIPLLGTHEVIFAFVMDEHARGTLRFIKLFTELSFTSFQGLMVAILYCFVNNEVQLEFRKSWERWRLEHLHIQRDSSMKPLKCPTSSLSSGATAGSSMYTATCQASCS
How it was run: as §1

[1] = cAMP, incubated at 37° C., 0.1% bovine casein (no human serum albumin), read-out: hGCGR EC50, nM (SEM, n)
[2] = HEK293, percent of maximal response to GIP(1-42)NH2, 37° C., 0.1% bovine casein, arithmetic mean, read-out: hGIPR Emax, % ± SEM
[3] = HEK293, percent of maximal response to GLP-1(7-36)NH2, 37° C., 0.1% bovine casein, arithmetic mean, read-out: hGLP-1R Emax, % ± SEM
[4] = hGCGR EC50, nM (SEM, n), cAMP, incubated at 37° C., 0.1% bovine casein (no human serum albumin)
[5] = HEK293, read-out: hGIPR Emax, % ± SEM, percent of maximal response to GIP(1-42)NH2, 37° C., 0.1% bovine casein, arithmetic mean
[6] = hGLP-1R EC50, nM (SEM, n), cAMP, incubated at 37° C., 0.1% bovine casein (no human serum albumin)

SMILES: CC[C@H](C)[C@H](NC(=O)[C@H](CC(C)C)NC(=O)[C@](C)(Cc1ccc(O)cc1)NC(=O)[C@@H](CCC(=O)O)NC(=O)[C@@H](NC(=O)[C@H](Cc1ccccc1)NC(=O)[C@H](CCC(=O)O)NC(=O)C(C)(C)NC(=O)[C@H](CCC(N)=O)NC(=O)[C@H](C)NC(=O)[C@H](CCCCNC(=O)COCCOCCNC(=O)COCCOCCNC(=O)CC[C@H](NC(=O)CCCCCCCCCCCCC(=O)O)C(=O)O)NC(=O)[C@H](CCCN)NC(=O)[C@H](CC(=O)O)NC(=O)[C@H](CC(C)C)NC(=O)[C@](C)(CC(C)C)NC(=O)[C@@H](NC(=O)[C@H](CO)NC(=O)[C@@H](NC(=O)[C@H](CC(=O)O)NC(=O)[C@H](CO)NC(=O)[C@@H](NC(=O)[C@](C)(Cc1ccccc1)NC(=O)[C@@H](NC(=O)CNC(=O)[C@H](CCC(=O)O)NC(=O)C(C)(C)NC(=O)[C@@H](N)Cc1ccc(O)cc1)[C@@H](C)O)[C@@H](C)O)C(C)C)[C@@H](C)CC)[C@@H](C)CC)C(=O)N[C@@H](CCC(=O)O)C(=O)NCC(=O)NCC(=O)N[C@@H](CCCCNC(=O)COCCOCCNC(=O)COCCOCCNC(=O)CC[C@H](NC(=O)CCCCCCCCCCCCC(=O)O)C(=O)O)C(=O)N[C@@H](CO)C(=O)N[C@@H](CO)C(=O)NCC(=O)N[C@@H](C)C(=O)N1CCC[C@H]1C(=O)N1CCC[C@H]1C(=O)N1CCC[C@H]1C(=O)N[C@@H](CO)C(N)=O [Example 179] (H-Y[Aib]EGT[αMeF]TSDVSI[αMeL]LD[Orn]K([AEEA-AEEA-γGlu-C14 diacid])AQ[Aib]EFI[dE][αMeY]LIEGGK([AEEA-AEEA-γGlu-C14 diacid])SSGAPPPS-NH2)
- EC50 (hGCGR; [1]): > 9950 nM
- Emax (hGIPR; [2]): 91%
- Emax (hGLP-1R; [3]): 99%

SMILES: CC[C@H](C)[C@H](NC(=O)[C@H](CC(C)C)NC(=O)[C@](C)(Cc1ccc(O)cc1)NC(=O)[C@H](CCCCNC(=O)COCCOCCNC(=O)COCCOCCNC(=O)CC[C@H](NC(=O)CCCCCCCCCCCCC(=O)O)C(=O)O)NC(=O)[C@@H](NC(=O)[C@H](Cc1ccccc1)NC(=O)[C@H](CCC(=O)O)NC(=O)C(C)(C)NC(=O)[C@H](CCC(N)=O)NC(=O)[C@H](C)NC(=O)[C@H](CCCCNC(=O)COCCOCCNC(=O)COCCOCCNC(=O)CC[C@H](NC(=O)CCCCCCCCCCCCC(=O)O)C(=O)O)NC(=O)[C@H](CCCN)NC(=O)[C@H](CC(=O)O)NC(=O)[C@H](CC(C)C)NC(=O)[C@](C)(CC(C)C)NC(=O)[C@@H](NC(=O)[C@H](CO)NC(=O)[C@@H](NC(=O)[C@H](CC(=O)O)NC(=O)[C@H](CO)NC(=O)[C@@H](NC(=O)[C@](C)(Cc1ccccc1)NC(=O)[C@@H](NC(=O)CNC(=O)[C@H](CCC(=O)O)NC(=O)C(C)(C)NC(=O)[C@@H](N)Cc1ccc(O)cc1)[C@@H](C)O)[C@@H](C)O)C(C)C)[C@@H](C)CC)[C@@H](C)CC)C(=O)N[C@@H](CCC(=O)O)C(=O)NCC(=O)NCC(=O)N1CCC[C@H]1C(=O)N[C@@H](CO)C(=O)N[C@@H](CO)C(=O)NCC(=O)N[C@@H](C)C(=O)N1CCC[C@H]1C(=O)N1CCC[C@H]1C(=O)N1CCC[C@H]1C(=O)N[C@@H](CO)C(N)=O [Example 181]
- EC50 (hGCGR; [4]): > 9950 nM
- Emax (hGIPR; [5]): 94.6%
- EC50 (hGIPR; hGIPR EC50, nM (SEM, n), cAMP, incubated at 37° C., 0.1% bovine casein (no human serum albumin)): 0.154 nM
- EC50 (hGLP-1R; [6]): 0.182 nM

SMILES: CC[C@H](C)[C@H](NC(=O)[C@H](CC(C)C)NC(=O)[C@](C)(Cc1ccc(O)cc1)NC(=O)[C@H](CCCCNC(=O)COCCOCCNC(=O)COCCOCCNC(=O)CC[C@H](NC(=O)CCCCCCCCCCCCC(=O)O)C(=O)O)NC(=O)[C@@H](NC(=O)[C@H](Cc1ccccc1)NC(=O)[C@H](CCC(=O)O)NC(=O)C(C)(C)NC(=O)[C@H](CCC(N)=O)NC(=O)[C@H](C)NC(=O)[C@H](CCCCNC(=O)COCCOCCNC(=O)COCCOCCNC(=O)CC[C@H](NC(=O)CCCCCCCCCCCCC(=O)O)C(=O)O)NC(=O)[C@H](CCCN)NC(=O)[C@H](CC(=O)O)NC(=O)[C@H](CC(C)C)NC(=O)[C@](C)(CC(C)C)NC(=O)[C@@H](NC(=O)C(C)(C)NC(=O)[C@@H](NC(=O)[C@H](CC(=O)O)NC(=O)[C@H](CO)NC(=O)[C@@H](NC(=O)[C@](C)(Cc1ccccc1)NC(=O)[C@@H](NC(=O)CNC(=O)[C@H](CCC(=O)O)NC(=O)C(C)(C)NC(=O)[C@@H](N)Cc1ccc(O)cc1)[C@@H](C)O)[C@@H](C)O)C(C)C)[C@@H](C)CC)[C@@H](C)CC)C(=O)N[C@@H](CCC(=O)O)C(=O)NCC(=O)NCC(=O)N1CCC[C@H]1C(=O)N[C@@H](CO)C(=O)N[C@@H](CO)C(=O)NCC(=O)N[C@@H](C)C(=O)N1CCC[C@H]1C(=O)N1CCC[C@H]1C(=O)N1CCC[C@H]1C(=O)N[C@@H](CO)C(N)=O [Example 182]
- EC50 (hGCGR; [4]): > 9950 nM
- Emax (hGIPR; [5]): 89%
- Emax (hGLP-1R; HEK293, read-out: hGLP-1R Emax, % ± SEM, percent of maximal response to GLP-1(7-36)NH2, 37° C., 0.1% bovine casein, arithmetic mean): 96.9%
- EC50 (hGLP-1R; [6]): 0.185 nM

SMILES: CC[C@H](C)[C@H](NC(=O)[C@H](CC(C)C)NC(=O)[C@](C)(Cc1ccc(O)cc1)NC(=O)[C@@H](CCC(=O)O)NC(=O)[C@@H](NC(=O)[C@H](Cc1ccccc1)NC(=O)[C@H](CCC(=O)O)NC(=O)C(C)(C)NC(=O)[C@H](CCC(N)=O)NC(=O)[C@H](C)NC(=O)[C@H](CCCCNC(=O)COCCOCCNC(=O)COCCOCCNC(=O)CC[C@H](NC(=O)CCCCCCCCCCCCC(=O)O)C(=O)O)NC(=O)[C@H](CCCN)NC(=O)[C@H](CC(=O)O)NC(=O)[C@H](CC(C)C)NC(=O)[C@](C)(CC(C)C)NC(=O)[C@@H](NC(=O)[C@H](CO)NC(=O)[C@H](Cc1ccncc1)NC(=O)[C@H](CC(=O)O)NC(=O)[C@H](CO)NC(=O)[C@@H](NC(=O)[C@](C)(Cc1ccccc1F)NC(=O)[C@@H](NC(=O)CNC(=O)[C@H](CCC(=O)O)NC(=O)C(C)(C)NC(=O)[C@@H](N)Cc1ccc(O)cc1)[C@@H](C)O)[C@@H](C)O)[C@@H](C)CC)[C@@H](C)CC)C(=O)N[C@@H](CCC(=O)O)C(=O)NCC(=O)NCC(=O)N[C@@H](CCCCNC(=O)COCCOCCNC(=O)COCCOCCNC(=O)CC[C@H](NC(=O)CCCCCCCCCCCCC(=O)O)C(=O)O)C(=O)N[C@@H](CO)C(=O)N[C@@H](CO)C(=O)NCC(N)=O [Example 183] (H-Y[Aib]EGT[αMePhe(2-F)]TSD[4Pal]SI[αMeL]LD[Orn]K([AEEA-AEEA-γGlu-C14 diacid])AQ[Aib]EFI[dE][αMeY]LIEGGK([AEEA-AEEA-γGlu-C14 diacid])SSG-NH2)
- EC50 (hGCGR; 0.1% bovine casein and 1.0% human serum albumin, 37° C., read-out: hGCGR EC50, nM (SEM, n)): > 9950 nM
- EC50 (hGCGR; [1]): > 9950 nM
- EC50 (hGIPR; 0.1% bovine casein and 1.0% human serum albumin, 37° C., read-out: hGIPR EC50, nM (SEM, n)): 1.22 nM
- Emax (hGIPR; HEK293, 0.1% bovine casein and 1.0% human serum albumin, 37° C., percent of maximal response to GIP(1-42)NH2, read-out: hGIPR Emax, % ± SEM): 75.5%
- Emax (hGIPR; [2]): 93.5 ± 1.46%
- EC50 (hGIPR; cAMP, incubated at 37° C., 0.1% bovine casein (no human serum albumin), read-out: hGIPR EC50, nM (SEM, n)): 0.0326 nM
- EC50 (hGLP-1R; 0.1% bovine casein and 1.0% human serum albumin, 37° C., read-out: hGLP-1R EC50, nM (SEM, n)): 66.6 nM
- Emax (hGLP-1R; HEK293, 0.1% bovine casein and 1.0% human serum albumin, 37° C., percent of maximal response to GLP-1(7-36)NH2, read-out: hGLP-1R Emax, % ± SEM): 97.3%
- Emax (hGLP-1R; [3]): 93.9 ± 4.99%
- EC50 (hGLP-1R; cAMP, incubated at 37° C., 0.1% bovine casein (no human serum albumin), read-out: hGLP-1R EC50, nM (SEM, n)): 1.37 nM
